This test concerns β-galactosidase. Description: Testing effects of serum on native enzyme activity with DUG. As to conditions: 0.02 mM DUG, 37°, 10 second delay, 30 second read. The format is biochemical. The protocol:
(2) Testing effects of serum on native enzyme activity with DUG:
The procedure of c (1) above was followed using 50 µl of 1.75×PBS,N3, Mg+0.5% RSA and 50 μ1 β-galactosidase in place of serum and conjugate, respectively, and […] of 0.02mM DUG in 1.75×PBX, N3, Mg +0.5% RSA.
The fluorescence rate was measured at 37° , 10 second delay, 30 second read.

As to “β-galactosidase: native active enzyme used as label in the immunoassay”, the “ΔF/30 sec., Buffer” value (native enzyme in buffer) is recorded as 250 ΔF/30 sec. Besides, the “ΔF/30 sec., Serum” value (native enzyme in serum) is recorded as 230 ΔF/30 sec.

These data come from patent US4668620A, “Reducing background interference activity in enzyme-label immunoassays” (Syntex (U.S.A.) Inc., priority 1984, dated 1987).
